pIC50: −log10 of the molar value.
How the values were obtained:
Format in all cases: cell-based
[1] = test system: squamous cell carcinoma of head and neck cells MDA1986; assay: MTS cell viability assay, MDA1986; settings: Table 1, 72-hour treatment
Procedure, shortened: (§1)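 JMAR and MDA1986 head and neck SCC cells and B16F10 melanoma cells grown in DMEM with 10% heat-inactivated FBS at 37 °C, 5% CO2, seeded at 1-2×10^4 cells/mL. Viability measured by MTS after 72-hour compound treatment, 3-hour reagent incubation, formazan absorbance at 490 nm.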

[2] = test system: squamous cell carcinoma of head and neck cells JMAR; assay: MTS cell viability assay, JMAR; settings: for pIC50: Table 1, 72-hour treatment; for IC90: Table 2
Procedure, shortened: as §1

[3] = test system: SUP-B15 Ph+ALL cells; assay: Combination with imatinib, MTS viability, SUP-B15; settings: 16 combinations
Method: (§2) Cell proliferation was analyzed using MTS assay and Trypan Blue exclusion. Annexin V-FITC/Propidium Iodide flow cytometry was used to analyze the induction of apoptosis in SUP-B15 cells after treatment with anolides. Cell cycle analysis was performed using propidium iodide flow cytometry. Modulation of BCR-ABL and downstream effector proteins was determined by western blot analysis. Syngery between withanolides and TKIs was evaluated using MTS viability to calculate combination indices. Apoptotic synergy was evaluated using Annexin V/PI.

[4] = test system: MRC-5; assay: MTS cell viability assay, MRC-5; settings: Homo sapiens, MRC5, Table 1, 72-hour treatment
[5] = test system: UMSCC-2 HNSCC cells; assay: Annexin V/PI staining and flow cytometry, UMSCC-2
Method: In similar analysis with X003, 50% of UMSCC-2 HNSCC cells underwent apoptosis (early and late) at 1 μM, while 90% of cells underwent apoptosis at 3 μM. Apoptosis with 1 μM X003 was confirmed with PARP cleavage and caspase 3 activation in NCI-H727 cells.

[6] = test system: SUP-B15 cells; assay: Annexin V/propidium iodide apoptosis, SUP-B15; settings: 48 hour; approximately 10×IC50 (Withaferin A, X001), 4×IC50 (X003)
Method: as §2
At no concentrations was the population of cells in necrosis significant.

[7] = test system: SUP-B15 cells; assay: Trypan blue exclusion assay, SUP-B15; settings: 5×, 2×, 1×, 0.5×IC50
Method: as §2, with “Syngery” left out

[8] = test system: normal MRC-5 fibroblasts; assay: MTS assay, normal MRC-5 fibroblasts (Example 7); settings: Homo sapiens, MRC5
Method: as §2

[9] = test system: DRO81-1 medullary thyroid cancer cells; assay: MTS cell viability assay, DRO81-1; settings: Table 1; DRO81-1; 72-hour treatment; read-out: IC50
Method: (§3) Human carcinoid cells, NCI-H727 (ATCC, Manassas, Va.), were cultured under standard conditions. Squamous cell carcinoma of head and neck cells, MDA1986 (Myers, et al. (2002) Clin. Cancer Res. 8:293) and JMAR (Swan, et al. (2003) Oral Oncol. 39:648-55); and melanoma cells lines B16F10 (ATCC, Manassas, Va.) and SKMEL28 (CLS, Eppelheim, Germany) were cultured in DMEM medium supplemented with 10% heat-inactivated fetal bovine serum (Sigma-Aldrich, St. Louis, Mo.), 1×MEM-essential amino acid, 1×MEM vitamin, and penicillin/streptomycin (Sigma-Aldrich, St. Louis, Mo.) in a humid environment of 5% CO2 at 37° C. Activity of withanolides against DRO81-1 and TT medullary thyroid cancer cells was also determined.
(§4) Cells were cultured in 96 well plates at a concentration of 1-2×10^4 cells/mL. Cell viability was assessed with the nonradioactive cell proliferation MTS assay using Cell Titer 96AQUEOUS One Solution Reagent (PROMEGA, Madison, Wis.), according to the manufacturer's instruction. After a 72-hour treatment, 20 μL of Cell Titer 96AQUEOUS One Solution Reagent were added to each well and incubated for 3 hours at 37° C. 5% CO2, and formazan absorbance was measured at 490 nm.

[10] = test system: HS766T; assay: Pancreatic cancer cell viability, HS766T; settings: read-out: IC50
Method: (§5) The activity of the withanolides of this invention were tested in pancreatic cancer cells. […] Moreover, IC50 values were determined for these compounds (Table 14).

[11] = test system: human carcinoid cells NCI-H727; assay: MTS cell viability assay, NCI-H727; settings: Table 1, NCI-H727, 72-hour treatment, read-out: IC50
Method: as §3, §4

[12] = test system: Mia PaCa-2; assay: Pancreatic cancer cell viability, Mia PaCa-2; settings: Homo sapiens, MIA PaCa2, read-out: IC50
Method: as §5

[13] = test system: melanoma cells B16F10; assay: MTS cell viability assay, B16F10; settings: Mus musculus; for pIC50: B16-F10, Table 1, 72-hour treatment; for IC90: B16-F10, Table 2
Procedure, shortened: as §1

[14] = test system: SUP-B15 Ph+ ALL cells; assay: MTS assay, SUP-B15; settings: for pIC50: Homo sapiens, SUP-B15
Method: as §2

[15] = test system: Hsp70 and Hsp40 in Hs766T cells; assay: Heat shock-induced Hsp70 and Hsp40 protein levels, Hs766T; settings: pretreatment 8 hours; 30-minute heat shock at 42° C.; further 8 hours
Method: For this analysis, Hs766T cells were incubated with X003 for 8 hours, followed by a 30-minute heat shock at 42° C. The cells were further incubated for 8 hours and Hsp70 and Hsp40 levels were determined.

[16] = test system: human melanoma SKMEL28 cells; assay: MTS cell viability assay, SKMEL28; settings: Homo sapiens; for pIC50: SK-MEL-28, 72 h; for IC90: SK-MEL-28, Table 2
Procedure, shortened: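 SKMEL28 melanoma cells in DMEM with 10% heat-inactivated FBS were seeded at 1-2×10^4 cells/mL and exposed to withanolides for 72 h. Viability was measured by MTS reagent, incubated 3 h at 37 °C, with formazan absorbance read at 490 nm.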

[17] = test system: SUP-B15 cells; assay: Cell cycle analysis by PI flow cytometry, SUP-B15
Method: as §2

[18] = test system: MDA-MB-468; assay: MTS assay, MDA-MB-468
Method: (§6) Cell proliferation was analyzed using MTS assay.

[19] = test system: MCF-7; assay: MTS assay, MCF-7
Method: as §6

[20] = test system: MDA-MB-231 cells; assay: Clonogenic assay, MDA-MB-231; settings: 1-2 μM; treated 24 hours, cultured two weeks
[21] = Table 3, treated for 72 hours, NA = no activity

| SMILES | pIC50 [1] | pIC50 [2] | IC90 [2] [nM] | synergy with imatinib [3] | pIC50 [4] | induction of apoptosis [6] | cell death at 24 hours, trypan blue exclusion [7] | pIC50 [8] | pIC50 [9] | pIC50 [10] | pIC50 [11] | pIC50 [12] | pIC50 [13] | IC90 [13] [nM] | pIC50 [14] | pIC50 ([16]; Table 1, 72-hour treatment) | pIC50 [16, 21] | IC90 [16] [nM] | other results |
| --- | --- | --- | --- | --- | --- | --- | --- | --- | --- | --- | --- | --- | --- | --- | --- | --- | --- | --- | --- |
| CC(=O)OCC1=C(C)C[C@H]([C@@H](C)C2CC[C@H]3[C@@H]4C[C@H]5O[C@]56[C@@H](OC(C)=O)C=CC(=O)[C@]6(COC(C)=O)[C@H]4CC[C@]23C)OC1=O (stereo partly drawn) [Compound X003, 4,19,27-triacetyl X001] | 6.04 | 6.80 | 1300 | showed synergy at all concentrations tested | 6.24 | almost all cells were in either late or early apoptosis | significant cell death at 24 hours at IC50 values | 5.82 | 6.47 | 6.40 | 6.49 | 6.46 | 7.17 | 330 | 7.32 | 6.27 | 6.66 | 360 | combination index (CI) with imatinib ([3]; 0.25×-1×IC50 of each drug): 0.136; cells undergoing apoptosis (early and late) ([5]; 1 μM, UMSCC-2): 50%; cells undergoing apoptosis ([5]; 3 μM, UMSCC-2): 90%; Fold Difference ([14]; MRC-5 vs SUP-B15 IC50): 31X; heat shock-induced Hsp70 and Hsp40 protein levels [15]: failed to block; Cell Cycle (%) G0/G1 ([17]; 15 nM): 57.4%; Cell Cycle (%) G2/M ([17]; 15 nM): 20.7%; Cell Cycle (%) S ([17]; 15 nM): 21.9%; Cell Cycle (%) G0/G1 ([17]; 30 nM): 66.4%; Cell Cycle (%) G2/M ([17]; 30 nM): 24%; Cell Cycle (%) S ([17]; 30 nM): 9.5%; Cell Cycle (%) G0/G1 ([17]; 60 nM): 62.5%; Cell Cycle (%) G2/M ([17]; 60 nM): 22.2%; Cell Cycle (%) S ([17]; 60 nM): 15.3%; Cell Cycle (%) G0/G1 ([17]; 120 nM): 52.6%; Cell Cycle (%) G2/M ([17]; 120 nM): 30%; Cell Cycle (%) S ([17]; 120 nM): 17.4% |
| CC1=C(CO)C(=O)O[C@@H]([C@@H](C)C2CC[C@H]3[C@@H]4C[C@H]5O[C@]56[C@@H](O)C=CC(=O)[C@]6(CO)[C@H]4CC[C@]23C)C1 (stereo partly drawn) [Compound X001] | 5.48 | 5.27 | 4900 | showed synergy at all concentrations tested | 4.90 | almost all cells were in either late or early apoptosis | caused death at 24 hours with 2× and 5×IC50 values | 5.09 | 5.64 | 5.89 | 5.77 | 6.10 | 6.04 | 2640 | 6.46 | 5.30 | 5.33 | 2140 | cells undergoing apoptosis (early and late) ([5]; 5 μM, 24-hour exposure, HNSCC cells): 18%; Log ECF [18]: 0.32; Log ECF [19]: 1.88; colony formation [20]: strongly inhibited; Cell Cycle (%) G0/G1 ([17]; 200 nM, 48 hour treatment): 53.1%; Cell Cycle (%) G2/M ([17]; 200 nM, 48 hour treatment): 26.4%; Cell Cycle (%) S ([17]; 200 nM, 48 hour treatment): 19.5%; Cell Cycle (%) G0/G1 ([17]; 400 nM, 48 hour treatment): 54.6%; Cell Cycle (%) G2/M ([17]; 400 nM, 48 hour treatment): 27.1%; Cell Cycle (%) S ([17]; 400 nM, 48 hour treatment): 18.3%; Cell Cycle (%) G0/G1 ([17]; 800 nM, 48 hour treatment): 47.5%; Cell Cycle (%) G2/M ([17]; 800 nM, 48 hour treatment): 42.2%; Cell Cycle (%) S ([17]; 800 nM, 48 hour treatment): 10.3%; Cell Cycle (%) G0/G1 ([17]; 1600 nM, 48 hour treatment): 39.9%; Cell Cycle (%) G2/M ([17]; 1600 nM, 48 hour treatment): 44.5%; Cell Cycle (%) S ([17]; 1600 nM, 48 hour treatment): 15.7%; Cell Cycle (%) G0/G1 ([17]; 3200 nM, 48 hour treatment): 49.9%; Cell Cycle (%) G2/M ([17]; 3200 nM, 48 hour treatment): 31.5%; Cell Cycle (%) S ([17]; 3200 nM, 48 hour treatment): 18.6% |

— patent publication US8598339B2, “Withanolide isolated from Physalis longifolia and analogs and methods of use thereof” (University of Kansas, priority 2011, dated 2013)
